# What was measured:
# P. aeruginosa ATCC 27853 = experiment: MIC assay (microbroth dilution) ± 25 μM EPI; assay type: cell-based, Pseudomonas aeruginosa
# From the text: (§1) • Strains and Reagents. The following strains were obtained from the Keio collection (Baba, et al.: Construction of Escherichia coli K-12 in-frame, single-gene knockout mutants: the Keio collection. In Mol Syst Biol, vol. 2, pp. 2006 0008, (2006)): JW0451 (ΔacrB::kan), JW5503 (ΔtolC::kan), JW3234 (ΔacrF::kan), JW2661 (ΔemrB::kan), JW0863 (ΔmacB::kan). The deletion mutations in each of these strains were transferred to AB1157 using P1 phage transduction (see Table 1). The construction of the E. coli cell-based reporter strain (SOS-XXX) that was used for high throughput screening is described in detail in the supplementary information. […] Irgasan was a generous gift from Ciba Speciality Chemicals, Inc. (High Point, N.C.). Hoechst 33342 (H33342) was purchased from Molecular Probes (Eugene, Oreg.). […] Luria Broth (Miller) and agar were purchased as prepared dehydrated media from Becton Dickenson (Franklin Lakes, N.J.). The compound libraries used in high-throughput screens were purchased from Chembridge (San Diego, Calif.), ChemDiv (San Diego, Calif.), and TimTec (Newark, Del.). MBX2319 was synthesized by Microbiotix, Inc. • Antibacterial Activity Assays. The minimal inhibitory concentration (MIC) of antibacterial agents and biocides were determined using the microbroth dilution method essentially as described in the CLSI protocol M7-A7 (CLSI: Method for dilution antimicrobial susceptibility testing for bacteria that grow aerobically; Approved standard-document M7-A7. In Clinical and Laboratory Standards Institute document M7-A7, Clinical and Laboratory Standards Institute, Wayne, Pa., (2006)), with the following exceptions. LB media was used instead of MHB. […] The final concentration of DMSO in each assay was 2%. […] MIC assays were performed in triplicate and the geometric mean was calculated. Checkerboard MIC assays using an EPI and an antibacterial agent were performed essentially as described (Pillai, et al.: Antimicrobial Combinations. In Antibiotics in Laboratory Medicine, ed. by V. Lorian, pp. 365-440, Lippincott Williams & Wilkins, Philadelphia, Pa., (2005)), with the same modifications used for the MIC assays described above. • Time-Kill Assays. Killing curve assays were performed essentially as described (Pillai, et al.: Antimicrobial Combinations. In Antibiotics in Laboratory Medicine, ed. by V. Lorian, pp. 365-440, Lippincott Williams & Wilkins, Philadelphia, Pa., (2005)). Exponential bacterial cultures grown in LB were diluted to a cell density of ˜1×10^7 in LB followed by addition of CIP and/or an EPI. Viability was monitored over 2-4 hours by making serial dilutions in saline and spotting 5 μl of each dilution onto the surface of an LB agar plate in triplicate. Colonies were counted after the plates were incubated at 37° C. for 16-18 hr, colony forming units (CFU) per ml were calculated, and the average and standard deviation for the three replicates was determined. For treatments that decreased CFU/ml below the limit of detection for the spot plating method, the 100 μl samples were diluted into 5 ml LB top agar, were poured onto LB agar plates, and incubated for 18 hr at 37° C. To calculate the fraction of the control for each sample, the average CFU/ml values for treated samples were divided by those from the same sample at 0 h (time=0). Each experiment was repeated at least three times, and a representative experiment is shown. • H33342 Accumulation Assay. The rate of accumulation of the fluorescent dye Hoechst 33342 (H33342), which is a substrate of a wide variety of bacterial efflux pumps (van den Berg van Saparoea, et al., Biochemistry, vol. 44, pp. 16931-16938, (2005)), can be used to estimate the activity of the major efflux pumps in E. coli and many other bacterial species. The H33342 accumulation assay was used to evaluate the effect of EPIs on the activity of the AcrAB-TolC efflux pump in several bacterial species essentially as described (Coldham, et al., J Antimicrob Chemother, vol. 65, pp. 1655-1663, (2010)). […]
# [1] = tested on: Shigella flexneri ATCC 12022; experiment: MIC assay (microbroth dilution) ± 25 μM EPI; assay type: cell-based
# From the text: as §1
# Escherichia coli AB1157 = experiment: MIC assay (microbroth dilution) ± 25 μM EPI; assay type: cell-based
# From the text: as §1
# Escherichia coli 331 = experiment: MIC assay (microbroth dilution) ± 25 μM EPI; assay type: cell-based; details: E. coli 331
# From the text: as §1
# [2] = tested on: Salmonella enterica ATCC 14028; experiment: MIC assay (microbroth dilution) ± 25 μM EPI; assay type: cell-based
# From the text: as §1
# [3] = tested on: Klebsiella pneumoniae ATCC 700603; experiment: MIC assay (microbroth dilution) ± 25 μM EPI; assay type: cell-based
# From the text: as §1
# [4] = tested on: Enterobacter aerogenes ATCC 13048; experiment: MIC assay (microbroth dilution) ± 25 μM EPI; assay type: cell-based
# From the text: as §1
# [5] = tested on: Escherichia coli ATCC 25922; experiment: MIC assay (microbroth dilution) ± 25 μM EPI; assay type: cell-based
# From the text: as §1
# [6] = tested on: Escherichia coli 287 (AB1157, CIPR, overexpresses efflux); experiment: microbe, parasite or virus in culture; assay type: cell-based
# From the text: as §1
# [7] = tested on: Escherichia coli 285 (AB1157, CIPR, overexpresses efflux); experiment: microbe, parasite or virus in culture; assay type: cell-based
# From the text: as §1
# [8] = Escherichia coli, read-out: MIC (μg/ml) with MBX2319 at concn (μM) of: 0
structure (smiles),measurement,setting,value
"CO/N=C(\C(=O)N[C@@H]1C(=O)N2C(C(=O)O)=C(COC(C)=O)CS[C@H]12)c1csc(N)n1 [CEF, cefotaxime]",MIC (μg/ml) ± EPI: MBX2319,P. aeruginosa ATCC 27853; + 25 μM MBX2319,8 µg/mL
same,MIC (μg/ml) ± EPI: PAβN,P. aeruginosa ATCC 27853; + 25 μM PAβN,19 µg/mL
same,MIC,"P. aeruginosa ATCC 27853; Pseudomonas aeruginosa, ATCC27853, no EPI, read-out: MIC (μg/ml) ± EPI: None",53.8 µg/mL
same,MIC (μg/ml) ± EPI: MBX2319,"[1]; Shigella flexneri ATCC 12022, + 25 μM MBX2319",0.031 µg/mL
same,MIC (μg/ml) ± EPI: PAβN,"[1]; Shigella flexneri ATCC 12022, + 25 μM PAβN",0.063 µg/mL
same,MIC,"[1]; Shigella flexneri, ATCC12022, read-out: MIC (μg/ml) ± EPI: None",0.063 µg/mL
same,MICs (μg/ml) ± EPIs: MBX2319,"Escherichia coli AB1157; E. coli AB1157 (WT), + 25 μM MBX2319, geometric mean",0.022 µg/mL
same,MICs (μg/ml) ± EPIs: PAβN,"Escherichia coli AB1157; E. coli AB1157 (WT), + 25 μM PAβN, geometric mean",0.25 µg/mL
same,MIC,"Escherichia coli AB1157; Escherichia coli, AB1157, read-out: MICs (μg/ml) ± EPIs: None",0.1 µg/mL
same,MIC (μg/ml) ± EPI: MBX2319,Escherichia coli 331; + 25 μM MBX2319,0.031 µg/mL
same,MIC (μg/ml) ± EPI: PAβN,Escherichia coli 331; + 25 μM PAβN,0.353 µg/mL
same,MIC (μg/ml) ± EPI: MBX2319,[2]; + 25 μM MBX2319,0.063 µg/mL
same,MIC (μg/ml) ± EPI: PAβN,[2]; + 25 μM PAβN,0.297 µg/mL
same,MIC,"[2]; ATCC14028, no EPI, read-out: MIC (μg/ml) ± EPI: None",0.21 µg/mL
same,MIC (μg/ml) ± EPI: MBX2319,[3]; + 25 μM MBX2319,8 µg/mL
same,MIC (μg/ml) ± EPI: PAβN,[3]; + 25 μM PAβN,8 µg/mL
same,MIC,"[3]; ATCC700603, no EPI, read-out: MIC (μg/ml) ± EPI: None",8 µg/mL
same,MIC (μg/ml) ± EPI: MBX2319,[4]; + 25 μM MBX2319,2.4 µg/mL
same,MIC (μg/ml) ± EPI: PAβN,[4]; + 25 μM PAβN,6.7 µg/mL
same,MIC,"[4]; Klebsiella aerogenes, ATCC13048, no EPI, read-out: MIC (μg/ml) ± EPI: None",2 µg/mL
same,MIC (μg/ml) ± EPI: MBX2319,"[5]; E. coli ATCC 25922, + 25 μM MBX2319",0.063 µg/mL
same,MIC (μg/ml) ± EPI: PAβN,"[5]; E. coli ATCC 25922, + 25 μM PAβN",0.25 µg/mL
same,MIC,"[5]; Escherichia coli, ATCC25922, read-out: MIC (μg/ml) ± EPI: None",0.074 µg/mL
same,MIC (μg/ml) with MBX2319 at concn (μM) of: 6.25,"[6]; 287, MBX2319 6.25 μM",0.063 µg/mL
same,MIC (μg/ml) with MBX2319 at concn (μM) of: 25,"[6]; 287, MBX2319 25 μM",0.063 µg/mL
same,MIC (μg/ml) with MBX2319 at concn (μM) of: 50,"[6]; 287, MBX2319 50 μM",0.063 µg/mL
same,MIC,[6]; [8],0.25 µg/mL
same,MIC (μg/ml) with MBX2319 at concn (μM) of: 3.13,"[7]; 285, MBX2319 3.13 μM",0.063 µg/mL
same,MIC (μg/ml) with MBX2319 at concn (μM) of: 6.25,"[7]; 285, MBX2319 6.25 μM",0.063 µg/mL
same,MIC (μg/ml) with MBX2319 at concn (μM) of: 25,"[7]; 285, MBX2319 25 μM",0.031 µg/mL
same,MIC (μg/ml) with MBX2319 at concn (μM) of: 50,"[7]; 285, MBX2319 50 μM",0.031 µg/mL
same,MIC,[7]; [8],0.25 µg/mL
